Measured values reported in patent US20170314056A1, “METHOD OF USING NEAR INFRARED FLUORESCENT DYES FOR IMAGING AND TARGETING CANCERS” (priority 2010, published 2017).
Entries after “also recorded” stand apart in the source; their conditions may differ.

Tests used:
[1] = Systemic toxicity of IR-783 in C57BL/6 mice; assay type: in vivo, mouse; settings: normal C57BL/6 mice
Experimental: The systemic toxicity of IR-783 was investigated in C57BL/6 mice (National Cancer Institute, Frederick, Md.) by injecting the dye by an i.p. route. The mice (N=8 per group) were subdivided into 4 groups and received PBS as control and IR-783 i.p. injection daily at the following doses: 0.375 mg/kg (imaging dose), 3.75 mg/kg and 37.5 mg/kg. […] The histomorphologic appearance of their vital organs was assessed at the time of sacrifice.

[2] = aqueous media; cited from earlier work
Apc^Min/+ mouse adenoma = test: Detection of intestinal neoplasia in Apc^Min/+ mice; assay type: in vivo; settings: IR-783 i.p. 10 nmol/20 g
Experimental: The uptake of cyanine dyes by the TRAMP mouse prostate model and the Apc^Min/+ mouse-adenoma model (obtained from The Jackson Laboratory, Bar Harbor, Me.) was assessed by a similar protocol as described above. We also utilized the Olympus OV100 imaging system to detect adenoma in the Apc^Min/+ mouse model. In brief, mice were injected intraperitoneally with IR-783 dye at a dose of 10 nmol/20 g body weight and animals were subjected to total body cyanine dye imaging as described above. Animals were sacrificed at 48 hrs after dye administration and tumors were dissected and subjected to NIR imaging. The presence of tumor cells in tissue specimens was confirmed by histopathologic analysis.

[3] = system: ARCaPM orthotopic tumor metastases; test: Detection of metastases of orthotopic ARCaPM tumors in mice; assay type: in vivo, mouse; settings: orthotopic ARCaPM (ARCaP) model; bone and soft tissue metastases
Experimental: The spontaneous metastasis of ARCaPM tumor cells stably transduced with an AsRed2 red fluorescence protein (RFP) (Clontech, Mountain View, Calif.) by injecting these cells orthotopically in mice was studied. ARCaPM-RFP metastasis was determined by the same procedures described above for capturing cyanine dye tumor imaging after IR-783 i.p. injection at a dose of 10 nmol/20 g. In addition, at the time of sacrifice both frozen and paraffin embedded tissue sections were obtained for RFP and confocal fluorescence imaging. Positive identification of ARCaPM-RFP cells was accomplished by fluorescence microscopy and validated by subculturing ARCaPM-RFP cells directly from bone metastasis tissue specimens.

Substance: 2-[2-[2-Chloro-3-[2-[1,3-dihydro-3,3-dimethyl-1-(4-sulfobutyl)-2H-indol-2-ylidene]-ethylidene]-1-cyclohexen-1-yl]-ethenyl]-3,3-dimethyl-1-(4-sulfobutyl)-3H-indolium [IR-783]
- effect on body weights [1]: did not affect body weights
- histopathology of vital organs at the time of sacrifice [1]: No abnormal histopathology
- systemic toxicity ([1]; i.p. daily 0.375, 3.75 and 37.5 mg/kg, one month): no systemic toxicity
- maximum absorption [2]: 782 nm
- detection of tumor (adenoma) (Apc^Min/+ mouse adenoma): could detect tumor
- detection of metastases by NIR imaging [3]: highly effective in localizing tumors cells in soft tissues and in bone; also recorded: both the primary tumor and the metastases in mouse tibia/femur were detected; also recorded: signals attained in IR-783 imaging reflect metastases of the orthotopic ARCaPM tumor
